# Experimental data reported in patent US20110045032A1 (priority 2001, published 2011).
# “Also recorded” adds a separate entry of the source.
# Tests used:
# Assay type in all cases: in vivo
# [1] = system: dust mite-sensitized cynomolgus monkeys; experiment: BALF cell count after allergen challenge (Example 24); conditions: for total leukocytes in BALF: DHEA-S treatment group
# Procedure: This study defines the effect of 5 days of treatment with DHEA-S on allergen-induced early phase response, and pulmonary inflammation in dust mite-sensitized cynomolgus monkeys. Baseline parameters were measured the week prior to treatment. DHEA-S (5 mg/ml, 2 ml nebulized) or an equivalent volume of saline was delivered once per day via nebulization (Pari LC+) through a canine facemask covering the nose and mouth on days 1 through 5. Allergen challenge and pulmonary function testing were performed on day 3 several hours after drug treatment, and broncho-alveolar lavage fluid BALF) was collected 48 hours post-challenge. The study includes 6 animals studied under a crossover design with a minimum of 4 weeks rest between study arms. The treatment with DHEA-S led to the following changes in the disease status of the animals: […]
# [2] = system: dust mite-sensitized rabbits; experiment: Lung histology (Example 27); conditions: compared to saline
# Procedure: This follow-up study compared the effects of DHEA-S and Puimicort® (budesonide inhalation suspension) on allergen-induced bronchial hyperresponsiveness (BHR) to histamine and pulmonary inflammation in dust mite-sensitized rabbits. The study included 18 animals divided into 3 treatment groups: saline, DHEA-S, and Puimicort. The animals were treated for once per day for 5 consecutive days via nebulization through a pediatric facemask covering the nose and mouth. Treatments were DHEA-S, 10 mg/day (5 mg/ml), Pulmicort Respules, 0.5 mg/day (0.5 mg/2 ml, note: this is the standard human dose) or saline (2 ml). A dust mite challenge was performed on day 4, and development of airway inflammation was assessed 6 hours and 30 hours after dust mite challenge. Histamine sensitivity was assessed 30 hours after challenge (day 5) and the lungs removed for histology.
# Analysis of lung sections indicated a moderate level of pulmonary inflammation in all groups. No differences in the level of monocyte phagocytic hyperplasia, airway and blood vessel cuffing by inflammatory cells, pneumonitis, pneumonia, bronchial associated lymphoidal tissue hyperplasia, septal edema, hemorrhage, alveolar edema, or bronchitis/bronchiolitis was observed, although monocyte phagocytic hyperplasia tended to be higher in the Pulmicort and DHEA-S groups, and bronchitis tended to be lower.
# [3] = system: dust mite-sensitized rabbits; experiment: BALF cell counts, intratracheal powder (Example 25)
# Procedure: This study defines the effect of 7 days of treatment with DHEA-S on allergen-induced bronchial hyperresponsiveness (BHR), early and late phase responses, and pulmonary inflammation in dust mite-sensitized rabbits. Baseline BHR and inflammation were first determined. The following week, allergen challenge, pulmonary function testing and BALF were performed on the untreated rabbits. Histamine sensitivity was determined 24 hours post allergen challenge. Rabbits were rested for 3 weeks then baseline values were re-established. The following week, DHEA-S (5 mg/day) was delivered once a day for 7 days via an intratracheal powder injector through the endrotracheal tube of the anesthetized rabbit. On day 8, 24 hrs after the last treatment, allergen challenge, pulmonary function testing and BALF were performed as previously. On day 9, 24 hrs after allergen challenge, a histamine challenge was performed. The drug was not micronized prior to use thus only a portion of the administered date was expected to reach the deep lung. The study includes 4 animals studied under a crossover design. The treatment with DHEA-S led to changes in the disease status of the animals that are described in the following paragraph.
# [4] = system: dust mite-sensitized rabbits; experiment: Lung histology (Example 26); conditions: blinded veterinary pathologist, scale of 0 to 4; vs vehicle control
# Procedure: This study defines the effect of 7 days of treatment with DHEA-S on allergen-induced bronchial hyperresponsiveness (BHR), early and late phase responses, and pulmonary inflammation in dust mite-sensitized rabbits. Baseline BHR and inflammation were first determined. DHEA-S (5 mg/ml, 2 ml nebulized) or an equivalent volume of vehicle was delivered once per day via nebulization through a pediatric facemask covering the nose and mouth on days 1 through 7. On day 8, 24 hours after the last treatment, allergen challenge, pulmonary function testing and BALF were performed. On day 9, 24 hours after allergen challenge a histamine challenge was performed and the lungs removed for histology. The study includes 5 animals studied under a crossover design. […]
# Effects on interstitial inflammation were evaluated by histology. A veterinary pathologist evaluated hematoxylin and eosin stained sections in a blinded manner. Sections were scored for inflammatory parameters using a scale of 0 to 4 with 0 representing no finding and 4 representing severe. […] All of the following parameters were scored lower in the DHEA-S treated lungs compared to the vehicle control group: cuffing of the airways and blood vessels by inflammatory cells, bronchial-associated lymphoid tissue hyperplasia, and bronchitis/bronchiolitis. […]
# [5] = system: dust mite-sensitized rabbits; experiment: Pulmonary function after allergen challenge, nebulized (Example 26)
# Procedure: This study defines the effect of 7 days of treatment with DHEA-S on allergen-induced bronchial hyperresponsiveness (BHR), early and late phase responses, and pulmonary inflammation in dust mite-sensitized rabbits. Baseline BHR and inflammation were first determined. DHEA-S (5 mg/ml, 2 ml nebulized) or an equivalent volume of vehicle was delivered once per day via nebulization through a pediatric facemask covering the nose and mouth on days 1 through 7. On day 8, 24 hours after the last treatment, allergen challenge, pulmonary function testing and BALF were performed. On day 9, 24 hours after allergen challenge a histamine challenge was performed and the lungs removed for histology. The study includes 5 animals studied under a crossover design. There was a 3 week resting period between study arms and lungs were taken during the second treatment arm only. The treatment with DHEA-S led to the changes in the disease status of the animals described in the following paragraph.
# Effects on airway obstruction were measured by changes in dynamic compliance and total lung resistance in response to allergen challenge. Rabbits were monitored for 6 hours following allergen challenge and the values plotted against time. Changes in dynamic compliance were determined by the % change in compliance as compared to the animal's initial saline value recorded prior to challenge. Changes in response to allergen and/or treatment were calculated using the AUC where an AUC unit is defined as % change×hour. Treatment with DHEA-S attenuated the drop in airway compliance following allergen challenge by 62% as compared to vehicle treatment. […] Variability during the early phase kept differences in AUC between the vehicle and drug treatment groups from being significant when analyzed using a paired t-test.
# ragweed-sensitized mice = experiment: Bronchial hyperresponsiveness to methacholine, whole-body plethysmograph (Example 28)
# Procedure: Two groups of mice were sensitized with two intraperitoneal injections and one intranasat administration of ragweed allergen (Ambrosia artemistifolia) on days 0, 4 and 11 respectively. A third group was treated similarly with saline to serve as non-allergic controls. The next two days, the treatment group animals were exposed to DHEA-S delivered as an aerosol (5 mg/ml suspension in saline, 2 ml nebulized) using the whole-body plethysmograph system (Buxco Electronics, Inc., Sharon, Conn.) and a DeVilbiss ultrasonic nebulizer. Twenty-four hours after the last drug exposure, mice were challenged with increasing concentrations of methacholine to determine bronchial hyperresponsiveness and then lavaged to determine relative changes in cell populations in BAL fluid.
# The ragweed only group responded in a dose-related fashion with increasing Penh value over the range of methacholine tested and a mean area under the curve of 7488.8.
# [6] = 48 hours after allergen challenge, compared to saline
structure (smiles),measurement,setting,value
"CC12CCC3C(CC=C4CC(OS(=O)(=O)[O-])CCC43C)C1CCC2=O.[Na+] (stereo not drawn) [DHEA-S, Dehydroepiandrosterone sulfate]",decrease of % eosinophils in BALF,[1]; [6],approximately 57%
same,decrease of percentage of neutrophils in BALF,[1]; [6],42%
same,eosinophil numbers in BALF less than saline,"[1]; 48 hours after allergen challenge, did not reach significance",approximately 64%
same,eosinophil numbers in BALF,"[1]; 48 hours after allergen challenge, saline 4.3±1.7",1.6±0.8 ×10^4 cells/ml
same,total leukocytes in BALF,[1]; 48 hours after allergen challenge,39.4 ×10^4 cell/ml
same,total leukocytes in BALF,[1]; before allergen challenge,34.5 ×10^4 cell/ml
same,absolute number of neutrophils in BALF,[1]; after allergen challenge,9.7±2.2 ×10^4 cells/ml
same,neutrophil influx level vs pre-challenge,"[1]; cynomolgus monkey, in vivo",not significantly higher than pre-challenge levels
same,percentage of eosinophils before and after allergen challenge,"[1]; cynomolgus monkey, in vivo",not significantly different
same,monocyte phagocytic hyperplasia,[2]; not significant,tended to increase
same,necrotizing bronchitis,[2]; not significant,tended to decrease
same,pavementing,[2]; statistically significant,decreased pavementing
same,neutrophils in BALF,"[3]; 15 minutes after dust mite challenge, control 10.2",1.3 ×10^4 cells/ml
same,macrophages in BALF,"[3]; 15 minutes after dust mite challenge, control 29.6",19.4 ×10^4 cells/ml
same,neutrophils in BALF,"[3]; 6 hours after challenge, control 43.8",32.2 ×10^4 cells/ml
same,eosinophils in BALF,"[3]; 24 hours after allergen challenge, control 3.2",2.0 ×10^4 cells/ml
same,macrophages in BALF,"[3]; 24 hours after allergen challenge, control 24.1",17.8 ×10^4 cells/ml
same,inhibition of eosinophils,[3]; at 24 hours,slight mean inhibition
same,histological evaluation of airway inflammation,[4],"reduced inflammatory cell cuffing of the vessels and bronchi, bronchus-associated lymphoid tissue hyperplasia, and epithelial sloughing; also recorded: scored lower"
same,total AUC for airway resistance,"[5]; 6 hours, control 315",377
same,PC50 histamine,"[5]; 48 hours after the last administration, control 0.84",0.86 mg/mL
same,tolerance of pulmonary function testing and histamine challenges,"[5]; 7 days of treatment via facemask, qualitative",better than vehicle-treated animals
same,effect on airway resistance changes,[5]; in the 6 hours after aerosol dust mite challenge,no significant effect
same,attenuation of the drop in airway compliance following allergen challenge,"[5]; nebulized 5 mg/ml, 2 ml once per day, 7 days, compared to vehicle treatment",62%
same,nasal congestion following histamine and dust mite challenges,"[5]; rabbit, in vivo",no evidence of nasal congestion
same,reduction of area under the curve (AUC) of the methacholine response,"ragweed-sensitized mice; aerosol 5 mg/ml suspension, 2 ml nebulized, two days",46%
same,mean area under the curve of Penh response to methacholine,"ragweed-sensitized mice; ragweed only 7488.8, non-allergic saline 2646.8",4038.0
